Assays:
Nav1.8 sodium channel = Nav1.8 sodium channel (Homo sapiens (Human), UniProt Q9Y5Y9); test: NaV1.8 blocking activity, manual patch clamp; type: cell-based; conditions: CHO cell line stably expressing Nav1.8
Experimental: The NaV1.8 blocking activity was determined by using a manual patch clamp technique to detect the effect of the subject on the channel currents of stably overexpressed Nav1.8.
CHO cell line stably expressing the Nav1.8 sodium channel was used for the experiments, gene information: sodium channel, voltage-gated, type 8, alpha (SCN10A), cDNA strictly similar to GenBank accession number: NM 006514.
Cells were cultured in HAM'S/F-12 medium containing 10% foetal bovine serum and 10 μg/mL Blasticidin, 200 μg/mL Hygromycin B, and 100 μg/mL Zeocin at 37° C., 5% CO2. For expansion or maintenance cultures, cells were treated with 0.25%-Trypsin-EDTA, washed and centrifuged, and then inoculated in 6-cm cell culture dishes with 2.5×10^5lls per cell culture dish (final volume: 5 mL).
Prior to the patch clamp detection, cells were separated with 0.25%-Trypsin-EDTA and 6.5×10^3 cells were spread onto coverslips and incubated (final volume: 500 μL) in 24-well plates for 18 hours, then the test was performed.
50 mM CsCl, 10 mM NaCl, 10 mM HEPES, 60 mM CsF, 20 mM EGTA, and pH was adjusted to 7.2 with CsOH. • Instrument information is provided in Table 2 below:
Prior to Nav1.8 channel current testing, a blank control solution (DMSO) was diluted into 10 ml of extracellular fluid as the working solution. Positive controls and subjects were first diluted with different doses of DMSO depending on the final concentration before being diluted as working solution using extracellular fluid. 100 nM TTX was added to each working solution to block the TTX-S current. The working solution was sonicated for 20 min before performing the patch clamp test detection.
Patch clamp manipulation: firstly, the capillary glass tube was drawn into a recording electrode using a microelectrode puller, then the electrode filled with intracellular fluid was loaded into the microelectrode holder, and the microelectrode manipulator was manoeuvred under an inverted microscope to immerse the electrode into the extracellular fluid and record the electrode resistance (Rpip). The electrode was then slowly contacted to the cell surface and negative pressure suction was given to form a GQ2 seal. At this time, fast capacitance compensation was performed and negative pressure was continually applied to suction through the cell membrane to form a whole-cell recording pattern. Finally, slow capacitance compensation was performed and experimental parameters such as series resistance (Rs) were recorded. No leakage compensation was given.
Drug administration was initiated when the Nav1.8 current was stabilized for whole-cell recordings, and the next concentration was detected after each drug concentration had acted for approximately 5 min (or until the current was stable). Cell-lined coverslips were placed in the recording bath under an inverted microscope, and the blank control external solution as well as the working solution of the compound to be tested flowed sequentially from low to high concentrations through the recording bath by using gravitational perfusion and thus acted on the cells, and a peristaltic pump was used to exchange fluids during the recording. The current detected by each cell in the compound-free external fluid served as its own control. Each concentration was repeated independently 2-3 times. All electrophysiological experiments were performed at room temperature.
The voltage stimulation scheme for whole-cell patch-clamp recording of Nav1.8 currents was as follows: when a whole-cell seal was formed, the voltage was clamped at −120 mV. The resting state recording of sodium currents was performed by maintaining the voltage for 5s and then depolarizing it to 0 mV, and then administering a depolarizing pulse (TP1) to 0 m V for 50 ms for detecting the resting state sodium currents. For half-inactivated state recording, the voltage was first stepped at different voltages and maintained for 5s and then a depolarizing pulse was given to 0 mV to detect the Vhalf. […]

[1] = Stability of the compound in liver microsomes (human); type: in vitro ADME; conditions: 1 μM compound, 0.5 mg protein/mL
Experimental: (§1) 2.1.1. working solution: 5 μL of test or control compound stock solution (10 mM DMSO solution) was diluted with 495 μL of acetonitrile (ACN) to obtain an intermediate stock solution (100 μM, 99% ACN).
(§2) 2.2.2 Preparation procedure: An appropriate amount of NADPH powder was weighed and diluted with 10 mM MgCl2 buffer (working solution concentration: 10 mM; final reaction system concentration: 1 mM).
(§3) 2.3.2 Preparation procedure: The appropriate concentration of liver microsomal working solution was prepared in 100 mM potassium phosphate buffer;
(§4) Acetonitrile (ACN) solution at 4° C. containing 200 ng/mL of Tolbutamide and 200 ng/ml of labetalol as internal standards 2.5. Operation steps:
(§5) 2.5.2. Diluting liver microsomes with 100 mM potassium phosphate buffer to a concentration of 0.56 mg/mL.
(§6) 2.5.3. Transferring 445 μL of liver microsomal working solution (0.56 mg/mL) to pre-heated incubation plates T60 and NCF60, and then pre-heating the incubation plates T60 and NCF60 for 10 minutes at 37° C. with shaking. Transferring 54 μL of liver microsomes to each well of the blank plate, adding 6 μL of NAPDH coenzyme solution to the blank plate, and finally transferring 180 μL of termination solution to the blank plate.
(§7) 2.5.4 Adding 5 μL of compound working solution (100 μM) to the incubation plates T60 and NCF60 containing liver microsomes and mixing three times.
(§8) 2.5.5. Adding 50 μL of buffer to the NCF60 plate and mixing three times, starting the timer and incubating at 37° C. for 60 min with the plate shaking.
(§9) 2.5.6. Adding 180 μL of quenching solution and 6 μL of NAPDH coenzyme working solution sequentially to quenching plate TO, making sure that the plate was cold to prevent volatilization of the incubation solution.
(§10) 2.5.7. For plate T60, mixing well three times and immediately transferring 54 μL of mixing solution (0-min time point) to quenching plate TO, then adding 44 μL of NAPDH coenzyme working solution to incubation plate T60. Starting the timer:
(§11) 2.5.8. At the 5, 15, 30, 45 and 60 minute time points, adding 180 μL of quenching solution to the quenching plate and transferring 60 μL of reaction solution from the T60 plate to the quenching plate at each time point.
(§12) 2.5.9. For NCF60 plates, mixing well and transferring 60 μL of reaction solution from the NCF60 incubating solution to a quenching plate containing 180 μL of quenching solution at 60th minute.
(§13) 2.5.10. All plates were mixed on a shaker for 10 min and then centrifuged at 4000 rpm at 4° C. for 20 min.
(§14) 2.5.11. Transferring 80 μL of supernatant to 240 μL of HPLC water and mixing on a
(§15) 2.6.1. Calculating t1/2 and Clint (mic) values based on first-order elimination kinetics: […]

[2] = Stability of the compound in liver microsomes (mouse); type: in vitro ADME, CD-1 mouse; conditions: 1 μM compound, 0.5 mg protein/mL
Experimental: as §1, §2, §3, §4, §5, §6, §7, §8, §9, §10, §11, §12, §13, §14, §15

[3] = Stability of the compound in liver microsomes (rat); type: in vitro ADME, SD rat; conditions: 1 μM compound, 0.5 mg protein/mL
Experimental: as §1, §2, §3, §4, §5, §6, §7, §8, §9, §10, §11, §12, §13, §14, §15

CYP1A2 = CYP1A2 (Homo sapiens (Human), UniProt P05177); test: Human liver microsomal CYP inhibition test, CYP1A2; type: in vitro ADME; conditions: microsomes
Experimental: (§16) 3.1 Buffer solutions: (1) potassium phosphate 100 mM; (2) magnesium chloride, 33 mM;
(§17) 3.2.3 Reservoir for compounds to be tested: Dissolving the compounds to be tested in DMSO to form a 10 mM DMSO solution.
(§18) 3.4.1 Preparation of human liver microsomal working solution (1.27×) (final concentration: 0.2 mg/mL)
(§19) 3.5.3 Adding 20 μL of substrate solution to the appropriate wells and 20 μL of potassium phosphate buffer to the blank wells;
(§20) 3.5.4 Adding 2 μL of different concentrations of target compounds (final concentrations from 0.05 μM to 50 μM, 7 concentrations in total) or standard inhibitors to each well, with 2 μL of methanol solution in the non-inhibitor and blank wells;
(§21) 3.5.5 Adding 1.012 mL of liver microsomes to 78.988 mL of potassium phosphate buffer, then adding 158 μL of liver microsomes solution to all wells; preheating the well plate for 10 minutes in a 37° C. water bath;
(§22) 3.5.6 Weighing 129.1 mg NADPH (purchased from SyncoZymes Co. Ltd.) and adding to 15.0 mL of 33 Mm MgCl2 solution to give a 10 mM concentration, adding 20 μL to each well;
(§23) 3.5.7 Mixing and incubating the well plate in a 37° C. water bath for 10 minutes, then adding 400 μL of cold termination solution at the appropriate time point;
(§24) 3.5.8 Centrifuging the sample at 4000 rpm for 20 minutes to precipitate the protein. Transferring 200 μL of supernatant to 100 μL of HPLC water and shaking for 10 minutes. The samples were analyzed by LC/MS/MS;
(§25) Percentage inhibition was plotted for blank control and different concentrations of target compounds by using XL fitting or SigmaPlot and the data were analyzed by non-linear regression. IC50 values were determined by using either 3-parameter or 4-parameter logistic equations.

CYP2C9 = CYP2C9 (Homo sapiens (Human), UniProt P11712); test: Human liver microsomal CYP inhibition test, CYP2C9; type: in vitro ADME; conditions: human liver microsomes 0.2 mg/mL; substrate Diclofenac
Experimental: as §16, §17, §18, §19, §20, §21, §22, §23, §24, §25

CYP2C19 = CYP2C19 (Homo sapiens (Human), UniProt P33261); test: Human liver microsomal CYP inhibition test, CYP2C19; type: in vitro ADME; conditions: human liver microsomes 0.2 mg/mL; substrate S-mephenytoin
Experimental: as §16, §17, §19, §20, §21, §22, §23, §24, §25

CYP2D6 = CYP2D6 (Homo sapiens (Human), UniProt P10635); test: Human liver microsomal CYP inhibition test, CYP2D6; type: in vitro ADME; conditions: human liver microsomes 0.2 mg/mL; substrate Dextromethorphan
Experimental: as §16, §17, §18, §19, §20, §21, §22, §23, §24, §25

CYP3A-M = CYP3A-M (Homo sapiens, UniProt P08684); test: Human liver microsomal CYP inhibition test, CYP3A-M (midazolam); type: in vitro ADME; conditions: human liver microsomes 0.2 mg/mL; substrate Midazolam
Experimental: as §16, §17, §18, §19, §20, §21, §22, §23, §24, §25

Chain of Nav1.8 sodium channel (Q9Y5Y9 whole entry): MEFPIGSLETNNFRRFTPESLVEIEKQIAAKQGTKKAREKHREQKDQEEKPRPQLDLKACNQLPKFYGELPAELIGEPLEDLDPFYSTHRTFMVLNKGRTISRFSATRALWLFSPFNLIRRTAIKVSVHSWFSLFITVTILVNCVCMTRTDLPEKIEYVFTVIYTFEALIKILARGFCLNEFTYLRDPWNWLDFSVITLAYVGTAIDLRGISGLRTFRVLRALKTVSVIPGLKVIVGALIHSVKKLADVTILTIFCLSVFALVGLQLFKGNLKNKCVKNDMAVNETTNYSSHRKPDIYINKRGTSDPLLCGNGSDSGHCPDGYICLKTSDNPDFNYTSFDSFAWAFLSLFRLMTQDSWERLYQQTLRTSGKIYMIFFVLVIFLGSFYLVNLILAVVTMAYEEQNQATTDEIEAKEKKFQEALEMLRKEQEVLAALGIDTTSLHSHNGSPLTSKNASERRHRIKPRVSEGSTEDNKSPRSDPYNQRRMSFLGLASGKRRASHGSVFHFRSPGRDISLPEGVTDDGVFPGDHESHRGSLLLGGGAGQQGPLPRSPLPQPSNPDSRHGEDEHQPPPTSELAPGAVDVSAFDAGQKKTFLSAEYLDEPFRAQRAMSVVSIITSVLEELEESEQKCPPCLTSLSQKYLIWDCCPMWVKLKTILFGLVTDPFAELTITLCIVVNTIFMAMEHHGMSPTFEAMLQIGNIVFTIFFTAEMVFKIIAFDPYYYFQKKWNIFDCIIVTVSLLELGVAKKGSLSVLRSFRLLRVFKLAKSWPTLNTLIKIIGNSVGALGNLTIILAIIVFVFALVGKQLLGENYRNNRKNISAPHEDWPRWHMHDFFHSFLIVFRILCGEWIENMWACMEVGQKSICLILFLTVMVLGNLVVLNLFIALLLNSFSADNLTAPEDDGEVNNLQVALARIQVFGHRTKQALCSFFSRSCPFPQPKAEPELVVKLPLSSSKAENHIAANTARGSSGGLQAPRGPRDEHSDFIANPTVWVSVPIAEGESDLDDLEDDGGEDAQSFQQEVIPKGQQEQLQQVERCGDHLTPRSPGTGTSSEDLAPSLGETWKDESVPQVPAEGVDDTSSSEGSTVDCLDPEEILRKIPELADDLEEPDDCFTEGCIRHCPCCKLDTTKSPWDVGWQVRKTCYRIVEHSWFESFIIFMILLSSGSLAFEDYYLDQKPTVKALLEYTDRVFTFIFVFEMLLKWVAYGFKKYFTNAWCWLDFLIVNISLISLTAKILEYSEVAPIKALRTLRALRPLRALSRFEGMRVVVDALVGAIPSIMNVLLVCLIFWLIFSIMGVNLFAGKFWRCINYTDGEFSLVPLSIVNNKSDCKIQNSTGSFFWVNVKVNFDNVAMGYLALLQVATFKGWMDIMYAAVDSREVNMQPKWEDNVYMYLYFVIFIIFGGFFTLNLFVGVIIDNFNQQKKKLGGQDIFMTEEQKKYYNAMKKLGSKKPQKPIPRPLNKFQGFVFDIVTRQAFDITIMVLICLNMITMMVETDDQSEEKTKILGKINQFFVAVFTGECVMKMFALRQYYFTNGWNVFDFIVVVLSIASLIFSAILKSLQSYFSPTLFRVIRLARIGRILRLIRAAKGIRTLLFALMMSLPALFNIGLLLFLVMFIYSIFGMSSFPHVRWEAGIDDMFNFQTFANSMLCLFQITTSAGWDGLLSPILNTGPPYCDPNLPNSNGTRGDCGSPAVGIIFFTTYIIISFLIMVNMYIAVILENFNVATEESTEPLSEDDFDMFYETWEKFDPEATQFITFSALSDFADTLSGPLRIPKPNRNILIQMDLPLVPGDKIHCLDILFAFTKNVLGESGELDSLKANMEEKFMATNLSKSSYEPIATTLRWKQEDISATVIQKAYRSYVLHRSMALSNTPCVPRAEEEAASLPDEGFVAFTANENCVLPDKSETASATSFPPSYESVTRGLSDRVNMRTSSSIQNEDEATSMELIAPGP
Chain of CYP2C19 (P33261 whole entry): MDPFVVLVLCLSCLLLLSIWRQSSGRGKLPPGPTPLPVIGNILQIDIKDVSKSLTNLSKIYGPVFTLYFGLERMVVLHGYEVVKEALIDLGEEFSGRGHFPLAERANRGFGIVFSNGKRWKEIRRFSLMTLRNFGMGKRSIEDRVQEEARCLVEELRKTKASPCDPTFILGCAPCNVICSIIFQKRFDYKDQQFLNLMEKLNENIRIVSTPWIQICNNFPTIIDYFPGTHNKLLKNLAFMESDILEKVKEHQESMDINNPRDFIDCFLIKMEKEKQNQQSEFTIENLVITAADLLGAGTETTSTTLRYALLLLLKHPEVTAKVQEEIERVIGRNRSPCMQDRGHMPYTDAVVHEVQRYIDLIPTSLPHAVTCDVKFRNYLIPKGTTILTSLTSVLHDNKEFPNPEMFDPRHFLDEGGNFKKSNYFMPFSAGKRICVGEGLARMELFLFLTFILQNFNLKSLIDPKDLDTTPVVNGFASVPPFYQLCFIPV
Chain of CYP1A2 (P05177 whole entry): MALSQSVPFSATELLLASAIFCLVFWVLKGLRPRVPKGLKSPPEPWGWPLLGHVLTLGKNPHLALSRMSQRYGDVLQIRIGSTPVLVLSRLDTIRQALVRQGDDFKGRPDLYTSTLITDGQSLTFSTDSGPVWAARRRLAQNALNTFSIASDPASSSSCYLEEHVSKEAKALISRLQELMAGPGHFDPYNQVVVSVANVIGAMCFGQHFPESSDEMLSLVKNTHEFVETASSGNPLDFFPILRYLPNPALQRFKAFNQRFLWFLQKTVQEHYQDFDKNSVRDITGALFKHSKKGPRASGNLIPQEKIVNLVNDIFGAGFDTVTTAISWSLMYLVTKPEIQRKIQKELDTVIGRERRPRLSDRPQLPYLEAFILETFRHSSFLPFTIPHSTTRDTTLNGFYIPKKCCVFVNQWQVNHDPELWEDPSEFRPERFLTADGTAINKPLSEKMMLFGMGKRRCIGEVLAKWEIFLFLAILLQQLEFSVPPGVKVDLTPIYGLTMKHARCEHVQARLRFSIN
Chain of CYP3A-M (P08684 2-503 limits assumed): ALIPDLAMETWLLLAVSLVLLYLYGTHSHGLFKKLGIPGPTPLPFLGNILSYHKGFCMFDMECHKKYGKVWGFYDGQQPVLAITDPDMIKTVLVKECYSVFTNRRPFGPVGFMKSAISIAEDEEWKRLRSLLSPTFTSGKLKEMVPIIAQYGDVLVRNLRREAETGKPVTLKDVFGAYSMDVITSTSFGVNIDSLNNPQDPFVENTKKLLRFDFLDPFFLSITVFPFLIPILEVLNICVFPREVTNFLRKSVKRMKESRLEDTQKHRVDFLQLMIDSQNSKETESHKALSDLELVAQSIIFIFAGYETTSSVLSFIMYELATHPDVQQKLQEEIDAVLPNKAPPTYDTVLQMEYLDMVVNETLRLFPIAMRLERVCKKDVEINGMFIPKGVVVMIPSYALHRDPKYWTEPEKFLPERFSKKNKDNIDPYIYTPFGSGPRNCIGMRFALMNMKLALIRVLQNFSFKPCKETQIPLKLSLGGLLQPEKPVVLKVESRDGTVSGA
Chain of CYP2C9 (P11712 whole entry): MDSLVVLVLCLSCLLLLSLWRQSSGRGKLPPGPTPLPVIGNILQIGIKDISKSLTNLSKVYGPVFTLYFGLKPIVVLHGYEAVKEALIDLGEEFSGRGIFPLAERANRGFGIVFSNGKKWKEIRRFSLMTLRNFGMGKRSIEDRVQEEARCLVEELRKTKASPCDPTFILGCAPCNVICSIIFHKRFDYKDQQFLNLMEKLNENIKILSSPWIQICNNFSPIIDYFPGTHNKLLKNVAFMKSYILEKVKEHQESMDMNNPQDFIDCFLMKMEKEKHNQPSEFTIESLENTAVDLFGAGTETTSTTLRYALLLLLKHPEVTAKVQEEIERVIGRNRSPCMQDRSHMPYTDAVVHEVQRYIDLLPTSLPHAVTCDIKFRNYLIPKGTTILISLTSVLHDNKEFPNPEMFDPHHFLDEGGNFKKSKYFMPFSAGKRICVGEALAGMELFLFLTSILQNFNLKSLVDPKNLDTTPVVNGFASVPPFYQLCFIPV
Chain of CYP2D6 (P10635 whole entry): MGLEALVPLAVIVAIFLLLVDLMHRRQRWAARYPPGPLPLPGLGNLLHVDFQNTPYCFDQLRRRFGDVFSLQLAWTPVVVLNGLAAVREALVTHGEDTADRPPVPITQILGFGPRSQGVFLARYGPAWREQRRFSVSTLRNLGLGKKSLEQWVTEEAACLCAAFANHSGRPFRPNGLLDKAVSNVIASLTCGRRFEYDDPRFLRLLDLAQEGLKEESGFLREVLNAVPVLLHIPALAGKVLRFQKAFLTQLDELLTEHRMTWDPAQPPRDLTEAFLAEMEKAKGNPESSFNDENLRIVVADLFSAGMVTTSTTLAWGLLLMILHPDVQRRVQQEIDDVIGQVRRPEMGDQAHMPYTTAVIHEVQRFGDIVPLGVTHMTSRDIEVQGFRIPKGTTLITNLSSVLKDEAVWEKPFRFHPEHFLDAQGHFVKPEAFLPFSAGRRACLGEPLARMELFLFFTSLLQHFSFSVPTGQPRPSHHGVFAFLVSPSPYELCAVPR

Row | SMILES | Blocking rate(%) @10 nM (Nav1.8 sodium channel) | IC50 (Nav1.8 sodium channel) | Human liver microsomes T½ ([1]; 37° C.) | Human liver microsomes Residual (T = 60 min) ([1]; T = 60 min) | Mouse liver microsomes T½ ([2]; 37° C.) | Mouse liver microsomes Residual (T = 60 min) ([2]; T = 60 min) | Rat liver microsomes T½ ([3]; 37° C.) | Rat liver microsomes Residual (T = 60 min) ([3]; T = 60 min) | Blocking rate (%) @3 nM (Nav1.8 sodium channel; 3 nM) | IC50 (CYP1A2) | IC50 (CYP2C9) | IC50 (CYP2C19) | IC50 (CYP2D6) | IC50 (CYP3A-M)
1 | COc1c([C@H]2[C@H](C(=O)Nc3ccnc(C(N)=O)c3)N[C@@](C)(C(F)(F)F)[C@H]2C)ccc(F)c1F [Compound 1, 4-((2R,3S,4S,5R)-3-(3,4-difluoro-2-methoxyphenyl)-4,5-dimethyl-5-(trifluoromethyl)pyrrolidine-2-carboxamido)pyridine amide] | 97.98% | 0.0013 µM | 80.6 min | 58.4% | 41.9 min | 37.1% | 18.9 min | 11.1% |  |  |  |  |  | 
2 | COc1c([C@H]2[C@H](C(=O)Nc3ccc(F)c(C(=N)NO)c3)N[C@@](C)(C(F)(F)F)[C@H]2C)ccc(F)c1F.Cl [Compound 10, (2R,3S,4S,5R)-3-(3,4-difluoro-2-methoxyphenyl)-aza-(4-fluoro-3-(aza-hydroxycarbamimidoyl)phenyl)-4,5-dimethyl-5-(trifluoromethyl) pyrrolidine-2-carboxamide hydrochloride] | 99.13% |  |  |  |  |  |  |  | 95.18% | > 50 µM | > 50 µM | 3.05 µM | > 50 µM | 39.3 µM
